# Laboratory results as given in paper PMC9421656, “Beyond Retigabine: Design, Synthesis, and Pharmacological Characterization of a Potent and Chemically Stable Neuronal Kv7 Channel Activator with Anticonvulsant Activity” (Journal of Medicinal Chemistry, 2022).
# Values joined by “and” are separate entries in the source; they are usually repeats but may differ in a detail not shown here. Equal values may be shown once. “Also recorded” adds a separate entry of the source.
# Key:
# PTZ-induced seizures = test: Pentylenetetrazol (PTZ)-induced acute seizures in mice; type: in vivo, C57Bl/6 mice; settings: XE991 alone, 3 mg/kg i.p.
# Experimental: A subcutaneous (s.c.) injection of 100 mg/kg PTZ in mice is able to trigger convulsive behavior whose intensity can be assessed and quantified according to the revised Lüttjohann’s scale (see Materials and Methods),[40] using a 9-point severity score ranging from 0 (whisker trembling) to 8 (wild jumping). For each animal, the maximal severity score (Figure 5A) and the time latency required to reach such values (Figure 5B) were recorded.
# Food and water were available ad libitum. Animals were experimentally naive and were used only once.
# Thus, each dose was dissolved to allow injection of 0.01 mL/g, i.p. The control group was represented by mice injected only with vehicle solution (saline containing 2% Tween-20 and 2% PEG-400).
# PTZ was injected, and animals were placed in clear Plexiglass boxes for observation of seizure activity. The severity of convulsions (from minimal “clonic” to maximal “generalized tonic–clonic”) as well as the latency to onset of maximal seizure was recorded.
# 0 = whisker trembling, 1 = sudden behavioral arrest, 2 = facial jerking, 3 = neck jerks, 4 = clonic seizures (sitting), 5 = tonic clonic seizures (lying on belly), 6 = clonic seizures (lying on side), 7 = tonic clonic seizures (lying on side), 8 = wild jumping. The behavioral assessments described above were performed in a blind manner and the observers had to reach a unanimous agreement regarding the scoring of the behavior.
# The number of animals needed for the experiment was determined using the power analysis software GPower version 3.1.92. The required minimum sample size was 8 mice per group. Statistical analyses were performed using GraphPad Prism (GraphPad Software, LaJolla, CA) using a one-way analysis of variance with the Tukey post-hoc test. The P value of <0.05 was accepted as indicative of a statistically significant difference.
# Kv7.2/Kv7.3 channels [1] = molecular target: T1, Kv7.2/Kv7.3 channels (Homo sapiens, UniProt O43525+O43526); test: FluxOR thallium-sensitive fluorescence-based assay in CHO cells stably expressing Kv7.2 + Kv7.3; type: cell-based; set-up: expressed in transfected cells; settings: for Kv7 opening activity (in words) / Slope of the fluorescent signal at 10 μM: 10 μM; for Kv7 opening activity (in words): compared with retigabine or the reference compound of the subseries; for Slope of the fluorescent signal at 10 μM: initial slope of FluxOR signal between 5 and 15 s, mean ± SEM
# Experimental: While assay robustness in Kv7.2/Kv7.3-expressing cells was high (Z′ factor > 0.5),[27] the Z′ factor calculated in CHO cells expressing Kv7.2 subunits alone was <0.5; thus, all subsequent pharmacological screens were performed in Kv7.2/Kv7.3-expressing cells. […] The Kv7.2/Kv7.3-stable cell line was generated using a plasmid-based PiggyBac transposon system that enables genomic integration of multiple independent transposons containing distinct cDNA sequences. cDNAs for KCNQ2 and KCNQ3 genes (encoding for Kv7.2 and Kv7.3, respectively) were cloned into two different PiggyBac expression vectors (pB-CMV-MCS-EF1α-RedPuro, System Biosciences), and these two plasmids, together with a plasmid encoding for the transposase (System Biosciences), were transfected into CHO cells using Lipofectamine 2000 (Invitrogen) as indicated in the protocol provided by the seller company.
# The selected clone stably expressing Kv7.2/Kv7.3 channels was grown in DMEM supplemented with 10% FBS, 50 U/mL Pen-Strep, 2 mM L-glutamine (all purchased from Gibco), and 4 μg/mL puromycin (Sigma) in a humidified atmosphere at 37 °C with 5% CO2. […] A kinetic dispense microplate reader (FLUOstar Optima) was used to read the plate, setting the excitation filter at 485 nm and the emission filter at 520 nm; “Stimulus buffer” prepared as indicated in the protocol was automatically added to wells after 5 s of recording; the plate was read every 1 s, for 50 s. The results were analyzed using Optima Data Analysis and Microsoft Excel.
# Only experiments resulting in a Z′ > 0.5 were considered. Data shown (Figures 1D,E,F,G and 3B) were obtained from at least three independent experiments.
# Data were analyzed using the GraphPad Prism 8.0.2 (GraphPad Software, LaJolla, CA). Statistically significant differences in the initial slope of the curves were evaluated through ordinary one-way ANOVA, and multiple comparisons were corrected with the Tukey test. […] Indicated EC50 values are the mean of at least three independent experiments ± standard error of the mean (SEM).
# [2] = Photostability under UV-visible light with HPLC analysis (degradation, dimer formation); type: physicochemical; settings: for % Degradation (3h, UV): 10 μM, buffered aqueous solution pH 7.4, 3 h UV-visible light, ± SD; for Dimers Formation / Photodegradation (in words): 3 h UV-visible light; for Dimers Formation: HPLC at 550 nm; for Photodegradation (in words): compared with retigabine
# Source text: Two different HPLC wavelengths were utilized: (a) […] to evaluate the decreased concentration of the starting molecule; (b) 550 nm to investigate the formation of phenazine/phenazinium dimers, as previously described.[10] Unfortunately, dimer formation was detected for all tested compounds, except for 23 and 24. […]. […]. The first group consisted of N4 (−X- in Table 2) substituted analogues, in which the tertiary amine is unavailable for the formation of phenazine dimers (compounds 25–28). […]. The third group included derivatives replacing hydrogen atoms with electron-withdrawing fluorine atoms at position R2 of the benzene-1,2,4-triamine core scaffold (compounds 59, 60), a strategy likely reducing the reactivity of N2 and N4. […].
# Photostability experiments were performed by dissolving compounds in DMSO and then diluting in buffered aqueous solutions at pH 7.4 to a final concentration of 10 μM. 1 cm quartz cells, filled with the abovementioned solutions, were irradiated by a UV lamp (UV Consulting TQ 150 equipped with Duran 50 sleeve and 150 W power supply unit, Peschl, Germany) at a fixed distance of 20 cm from the UV source. Control samples were maintained at 37 °C, wrapped with aluminum foil to avoid light exposure, and used to assess chemical stability of the compounds. At predetermined intervals, aliquots were withdrawn and analyzed by UHPLC in order to assess the concentration decrease of the starting materials and the presence of the dimers usually formed by retigabine.
# Photostability and chemical stability experiments were carried out on a Kinetex^TM C18 150 × 2.1 mm × 2.6 μm (100 Å) column (Phenomenex, Bologna, Italy). The optimal mobile phase consisted of 0.1% TFA/H2O v/v (A) and 0.1% TFA/ACN v/v (B). Analysis was performed in gradient elution as follows: 0–13.0 min, 5–65% B; 13–14.0 min, 65–95% B; 14–15.0 min, isocratic to 95% B; 15–15.01 min, 95–5% B; then 3 min for column re-equilibration. The flow rate was 0.5 mL min^–1. The column oven temperature was set to 45 °C. The injection volume was 7 μL of sample. The following PDA parameters were applied: sampling rate, 12.5 Hz; detector time constant, 0.160 s; cell temperature, 40 °C. Data acquisition was set in the range 190–800 nm, and chromatograms were monitored at 224 nm to assess the decrease in concentration of the starting material, while a wavelength of 550 nm was used to eventually detect dimerization.
# [3] = In vitro metabolism assay (S9 fraction of human liver microsomes); type: in vitro ADME; settings: human
# Experimental: To further explore the metabolic stability of compounds 25, 26, and 60 in a biologically relevant model, they were tested in an in vitro metabolism assay (S9 fraction of human liver microsomes) using retigabine as a comparator.[33],[34] In this assay, a very small extent (4.7 ± 0.5%) of retigabine undergoes phase I metabolism, whereas a larger fraction (17.4 ± 1.2%) was metabolized in phase II reactions, as previously reported.[35]
# Kv7.2/Kv7.3 channels [4] = molecular target: T1, Kv7.2/Kv7.3 channels; set-up: expressed in transfected cells; settings: cited from earlier work
Compound,Effect on seizure severity score or latency (PTZ-induced seizures),Effect on retigabine-induced increase of maximal fluorescence and initial slope (Kv7.2/Kv7.3 channels [1]; 10 μM XE991 with retigabine),"% Degradation (3h, UV) [2] [%]",Dimers Formation [2],Photodegradation (in words) [2],Phase I turnover metabolism [3] [%],Phase II turnover metabolism [3] [%],Kv7 opening activity (in words) (Kv7.2/Kv7.3 channels [1]),Slope of the fluorescent signal at 10 μM (Kv7.2/Kv7.3 channels [1]),Potency relative to retigabine in activating Kv7.2/Kv7.3 channels in vitro (Kv7.2/Kv7.3 channels [4])
"O=C1c2ccccc2C(Cc2ccncc2)(Cc2ccncc2)c2ccccc21 [XE991, reference compound]",did not affect,abolished,–,–,–,–,–,–,–,–
"CCCCCCC(=O)Nc1ccc(N(C)Cc2ccc(C(F)(F)F)cc2)cc1N [compound 25, N-(2-Amino-4-(methyl(4-(trifluoromethyl)benzyl)amino)phenyl)heptanamide]",–,–,63.3±2.8,did not form dimers and No,underwent extensive photodegradation,20.6 ± 1.4,33.2 ± 1.0,improved agonist activity; also recorded: higher than that of retigabine,0.0637±0.0033,–
"CC(C)(C)CC(=O)Nc1ccc(NCc2ccc(C(F)(F)F)cc2)cc1N1CCCCC1 [compound 24, 3,3-Dimethyl-N-(2-(piperidin-1-yl)-4-((4-(trifluoromethyl)benzyl)amino)phenyl)butanamide]",–,–,79.8 ± 4.2,inability of compounds 23 and 24 to form dimers and No,enhanced degradation when compared to retigabine,–,–,comparable to that of the reference compound 17,0.0591±0.0043,–
"CN(Cc1ccc(C(F)(F)F)cc1)c1ccc(NC(=O)CC(C)(C)C)c(N)c1 [compound 26, N-(2-Amino-4-(methyl(4-(trifluoromethyl)benzyl)amino)phenyl)-3,3-dimethylbutanamide]",–,–,99.5±0.1,did not form dimers and No,underwent extensive photodegradation,32.1 ± 1.2,32.7 ± 0.3,improved agonist activity; also recorded: higher than that of retigabine,0.0721±0.0034,–
CCOC(=O)Nc1ccc(NCc2ccc(F)cc2)c(F)c1N [SF0034],–,–,–,–,–,–,–,–,–,five times more potent than retigabine
"Nc1cc(NCc2ccc(C(F)(F)F)cc2)ccc1NC(=O)CCC1CCCCC1 [compound 19, N-(2-Amino-4-((4-(trifluoromethyl)benzyl)amino)phenyl)-3-cyclohexylpropanamide]",–,–,64.8 ± 0.9,Yes,–,–,–,–,0.0452±0.0077,–
"CCCCCCCC(=O)Nc1ccc(NCc2ccc(C(F)(F)F)cc2)cc1N [compound 14, N-(2-Amino-4-((4-(trifluoromethyl)benzyl)amino)phenyl)octanamide]",–,–,73.2±0.4,Yes,–,–,–,–,0.0563±0.0039,–
"CCCCCCC(=O)Nc1ccc(NCc2ccccc2)cc1N [compound 41, N-(2-Amino-4-(benzylamino)phenyl)heptanamide]",–,–,19.5±4.7,Yes,–,–,–,no change in activity,0.0476±0.0030,–
